Paper PMC9293909 (Nature Communications, 2022)
Values joined by “and” are separate entries in the source; they are usually repeats but may differ in a detail not shown here. Equal entries are not always repeated. Where two headings read alike, the source gives them in different places.

Legend:
respiration (f, VT, VE) = assay: Urethane-anaesthetised rat, respiration; conditions: Fig6e
Protocol: The femoral vein was catheterised for drug delivery.
Adult male Sprague–Dawley rats (400-500 g) were anaesthetised with urethane and instrumented as described above, with the exception that the arterial cannulation was not performed.
Changes in f, VT, and VE were measured. If the dosing occurred close to a respiratory event such as a sigh a second IV dose was administered, with 20 min recovery periods either side of the injection.

[1] = test system: heart rate and mean arterial blood pressure; assay: Urethane-anaesthetised rat, heart rate and arterial blood pressure; conditions: for HR / HR, Average / MAP, Average: Fig6e
Source text: Anaesthesia was induced in adult male Sprague–Dawley rats (230-330 g) with isofluorane (2–4%; Piramal Healthcare). The femoral vein was catheterised for drug delivery. Anaesthesia was maintained with urethane (1.2–1.7 g kg^−1; Sigma) in sterile saline delivered via the femoral vein catheter. […] The trachea was cannulated and the femoral artery catheterised, and both were connected to pressure transducers (Digitimer) to record respiratory airflow and arterial blood pressure, respectively. Blood pressure and airflow signals were amplified using the NeuroLog system (Digitimer) connected to a micro1401 interface and acquired on a computer using Spike2 software (v7.08a; Cambridge Electronic Design). […] Airflow measurements were used to calculate: tidal volume (VT; mL; pressure sensors were calibrated with a 3 mL syringe), and respiratory frequency (f; breaths min^−1; BrPM). Minute ventilation (VE; mL min^−1) was calculated as f × VT.
Cardiovascular and respiratory parameters were allowed to stabilise before experiments began. A1R agonists were administered by intravenous (IV) injection and the changes in HR, MAP, f, VT, and VE were measured. […] All injections were administered IV as a 350 µl·kg^-1 bolus.

[2] = test system: neuropathic pain (paw withdrawal threshold); assay: Spinal nerve ligation (Chung model), mechanical allodynia, von Frey; format: in vivo, rat
Protocol: Adult male Sprague–Dawley rats, 7-8 weeks old, weighing around 250 g at the time of Chung model surgery, were purchased from Charles River UK Ltd. The animals were housed in groups of 4 in an air-conditioned room on a 12-hour light/dark cycle. Food and water were available ad libitum. They were allowed to acclimatise to the experimental environment for three days by leaving them on a raised metal mesh for at least 40 min. The baseline paw withdrawal threshold (PWT) was examined using a series of graduated von Frey hairs (see below) for 3 consecutive days before surgery and re-assessed on the 6th to 8th day after surgery and on the 13th to 17th day after surgery before drug dosing.
Prior to surgery each rat was anaesthetised with 3% isoflurane mixed with oxygen (2 L min^−1) followed by an intramuscular injection of ketamine (60 mg kg^−1) plus xylazine (10 mg kg^−1). The back was shaved and sterilised with povidone-iodine. The animal was placed in a prone position and a para-medial incision was made on the skin covering the L4-6 level. The L5 spinal nerve was carefully isolated and tightly ligated with 6/0 silk suture. The wound was then closed in layers after a complete haemostasis. A single-dose of antibiotics (Amoxipen, 15 mg/rat, intraperitoneally, IP) was routinely given for prevention of infection after surgery. The animals were placed in a temperature-controlled recovery chamber until fully awake before being returned to their home cages. The vehicle (normal saline or DMSO) was administered via the IV route at 1 ml·kg^−1 and via the intrathecal (IT) route at 10 µl for each injection. […] To test for mechanical allodynia the animals were placed in individual Perspex boxes on a raised metal mesh for at least 40 min before the test. Starting from the filament of lower force, each filament was applied perpendicularly to the centre of the ventral surface of the paw until slightly bent for 6 seconds. If the animal withdrew or lifted the paw upon stimulation, then a hair with force immediately lower than that tested was used. If no response was observed, then a hair with force immediately higher was tested. […] The animals were returned to their home cages to rest (about 30 min) between two neighbouring testing time points. At the end of each experiment, the animals were deeply anaesthetised with isoflurane and killed by decapitation.

[3] = Half-life determination in PBS; format: physicochemical; conditions: for 1st / % Compound Remaining / 2nd / % Compound Remaining / Mean / % Compound Remaining: PBS, pH 7.4; for half-life: buffer, pH 7.4, PBS
Protocol: […] Samples were analysed by HPLC-MS/MS and corresponding peak areas were recorded for each analyte. The ratio of precursor compound remaining after each time-point relative to the amount present at time 0, expressed as a percentage, is reported as chemical stability.

motor coordination = test system: motor coordination
Protocol: On the day of the experiment, three baseline trials were recorded. The compound was administered IP (10 µg kg^−1, n = 6) or IV via tail vein injection (10 and 25 µg kg^−1, n = 6 per group). The control group received subcutaneous saline and the positive control group received subcutaneous morphine (15 mg kg^−1). Latency to fall (seconds) was measured in triplicate at 1, 2, 3 and 5 h post drug administration.

[4] = incubation 0 minutes, UoBern01 at 1.00E-06 M
[5] = incubation 60 minutes, UoBern01 at 1.00E-06 M
[6] = incubation 120 minutes, UoBern01 at 1.00E-06 M
[7] = antagonist group, 1h after dosing
[8] = antagonist group, 2h after dosing
[9] = antagonist group, 4h after dosing

OC[C@H]1O[C@@H](n2cnc3c(N[C@@H]4CCC[C@H]4OCc4ccccc4)ncnc32)[C@H](O)[C@@H]1O [B]
Freq, Average (respiration (f, VT, VE); dose group B 8, n 12): 166.9 | Freq, Average (respiration (f, VT, VE); dose group B 17, n 4): 189.3 | Freq, Average (respiration (f, VT, VE); dose group B 25, n 4): 209.0 | HR ([1]; dose group B 8, individual rat): 406 and 368 and 425 and 416 and 331 and 340 and 420 and 470 | HR, Average ([1]; dose group B 8, n 8): 397.0 | MAP, Average ([1]; dose group B 8, n 8): 111.3 | HR ([1]; dose group B 17, individual rat): 369 and 385 and 301 and 313 | HR, Average ([1]; dose group B 17, n 4): 342.0 | MAP, Average ([1]; dose group B 17, n 4): 115.8 | HR ([1]; dose group B 25, individual rat): 362 and 382 and 312 and 305 | HR, Average ([1]; dose group B 25, n 4): 340.3 | MAP, Average ([1]; dose group B 25, n 4): 113.5

OC[C@H]1O[C@@H](n2cnc3c(NC4CCCC4OCc4ccccc4)ncnc32)[C@H](O)[C@@H]1O (some centres unmarked) [BnOCPAA]
paw withdrawal threshold, individual animals (Fig7d) ([2]; 6ug, 1h after dosing): 8 | paw withdrawal threshold, Average (Fig7d) ([2]; 6ug, 1h after dosing, n 11): 9.8 | paw withdrawal threshold, individual animals (Fig7d) ([2]; 6ug, 2h after dosing): 8 | paw withdrawal threshold, Average (Fig7d) ([2]; 6ug, 2h after dosing, n 11): 12.6 | paw withdrawal threshold, individual animals (Fig7d) ([2]; 6ug, 4h after dosing): 8 | paw withdrawal threshold, Average (Fig7d) ([2]; 6ug, 4h after dosing, n 11): 9.8

O=C(O)CCCc1ccc(N(CCCl)CCCl)cc1 [Chlorambucil]
1st / % Compound Remaining [3, 4]: 100% | 2nd / % Compound Remaining [3, 4]: 100% | Mean / % Compound Remaining [3, 4]: 100% | 1st / % Compound Remaining ([3]; incubation 30 minutes): 68.5% | 2nd / % Compound Remaining ([3]; incubation 30 minutes): 81.3% | Mean / % Compound Remaining ([3]; incubation 30 minutes): 74.9% | 1st / % Compound Remaining [3, 5]: 45.8% | 2nd / % Compound Remaining [3, 5]: 52.3% | Mean / % Compound Remaining [3, 5]: 49.1% | 1st / % Compound Remaining ([3]; incubation 90 minutes): 27.3% | 2nd / % Compound Remaining ([3]; incubation 90 minutes): 31% | Mean / % Compound Remaining ([3]; incubation 90 minutes): 29.2% | 1st / % Compound Remaining [3, 6]: 11% | 2nd / % Compound Remaining [3, 6]: {17.7} % | Mean / % Compound Remaining [3, 6]: 11% | half-life ([3]; UoBern01 at 1.00E-06 M, read-out: 1st / Half-Life): 39 min | half-life ([3]; UoBern01 at 1.00E-06 M, read-out: 2nd / Half-Life): 52.6 min | half-life ([3]; UoBern01 at 1.00E-06 M, read-out: Mean / Half-Life): 46 min

CCCn1c(=O)c2[nH]c(C3CCCC3)nc2n(CCC)c1=O [DPCPX]
effect on reversal of mechanical allodynia by BnOCPA ([2]; DPCPX 1 mg kg^−1 IP, BnOCPA 6 µg kg^−1 IV): prevented the reversal of mechanical allodynia by BnOCPA | paw withdrawal threshold, Average (Fig7d) [2, 7]: 4.0 | paw withdrawal threshold, individual animals (Fig7d) [2, 7]: 6 and 4 and 2 | paw withdrawal threshold, Average (Fig7d) [2, 8]: 4.0 | paw withdrawal threshold, individual animals (Fig7d) [2, 8]: 6 and 4 and 2 | paw withdrawal threshold, Average (Fig7d) [2, 9]: 4.7 | paw withdrawal threshold, individual animals (Fig7d) [2, 9]: 6 and 4 and 2

CCCOC(=O)c1c(-c2ccccc2)nc(CC)c(C(=O)SCC)c1CCC [MRS1523]
effect on analgesia caused by BnOCPA ([2]; MRS1523 2 mg kg^−1 IP, BnOCPA 6 µg kg^−1 IV): had no effect on the analgesia caused by BnOCPA | paw withdrawal threshold, Average (Fig7d) [2, 7]: 13.6 | paw withdrawal threshold, individual animals (Fig7d) [2, 7]: 15 and 8 | paw withdrawal threshold, Average (Fig7d) [2, 8]: 14.0 | paw withdrawal threshold, individual animals (Fig7d) [2, 8]: 15 and 10 | paw withdrawal threshold, Average (Fig7d) [2, 9]: 12.2 | paw withdrawal threshold, individual animals (Fig7d) [2, 9]: 15 and 10 and 6

Nc1ncnc2c1ncn2[C@@H]1O[C@H](CO)[C@@H](O)[C@H]1O [ado]
heart rate ([1]; Fig5c, individual rat): 179 and 147 and 138 and 122 | heart rate, Average ([1]; Fig5c, n 4): 147 | mean arterial blood pressure ([1]; Fig5d, individual rat): 56 and 36 and 42 and 48 | mean arterial blood pressure, Average ([1]; Fig5d, n 4): 46

CN1CC[C@]23c4c5ccc(O)c4O[C@H]2[C@@H](O)C=C[C@H]3[C@H]1C5 [morphine]
Seconds on rota, 1h avg (motor coordination; Morphine, 1h post inj, avg of 3 trials per animal): 12.0 s and 6.0 s and 5.0 s and 6.3 s and 10.7 s and 10.3 s | 1h avg/ baseline (motor coordination; Morphine, 1h post inj, per animal): 0.218 and 0.137 and 0.1 and 0.2 and 0.164 and 0.0833 | Seconds on rota, 1h (motor coordination; Morphine, 1h post inj, single trials, individual animals): 5 s and 14 s and 17 s and 9 s and 4 s and 2 s and 10 s and 8 s and 1 s and 12 s | average of avg/baseline, 1hr post inj (motor coordination; Morphine, 1hr, group average): 0.150 | Seconds on rota, 2h avg (motor coordination; Morphine, 2h post inj, avg of 3 trials per animal): 34.0 s and 19.7 s and 12.3 s and 6.7 s and 21.7 s and 31.0 s | 2h avg/ baseline (motor coordination; Morphine, 2h post inj, per animal): 0.6 and 0.45 and 0.259 and 0.2 and 0.333 and 0.25 | Seconds on rota, 2h (motor coordination; Morphine, 2h post inj, single trials, individual animals): 30 Seconds and 27 Seconds and 45 Seconds and 7 Seconds and 18 Seconds and 34 Seconds and 2 Seconds and 17 Seconds and 8 Seconds and 6 Seconds (2×) and 24 Seconds and 22 Seconds and 19 Seconds and 26 Seconds | average of avg/baseline, 2hr post inj (motor coordination; Morphine, 2hr, group average): 0.352 | Seconds on rota, 3h avg (motor coordination; Morphine, 3h post inj, avg of 3 trials per animal): 46.3 s and 37.7 s and 34.0 s and 18.7 s and 55.0 s | 3h avg/ baseline (motor coordination; Morphine, 3h post inj, per animal): 0.842 and 0.9 and 0.7 and 0.566 and 0.444 | Seconds on rota, 3h (motor coordination; Morphine, 3h post inj, single trials, individual animals): 39 s and 41 s and 59 s and 27 s and 29 s and 57 s and 21 s and 54 s and 11 s and 23 s and 22 s and 26 s and 65 s | average of avg/baseline, 3hr post inj (motor coordination; Morphine, 3hr, group average): 0.690 | Seconds on rota, 5h avg (motor coordination; Morphine, 5h post inj, avg of 3 trials per animal): 48.7 s and 52.3 s and 48.0 s and 81.7 s and 84.3 s | 5h avg/ baseline (motor coordination; Morphine, 5h post inj, per animal): 0.9 and 1.1 and 1.5 and 1.3 and 0.7 | Seconds on rota, 5h (motor coordination; Morphine, 5h post inj, single trials, individual animals): 24 s and 57 s and 65 s and 31 s and 60 s and 55 s and 19 s and 73 s and 38 s and 51 s and 67 s and 81 s and 97 s and 88 s and 100 s | average of avg/baseline, 5hr post inj (motor coordination; Morphine, 5hr, group average): 1.081 | rotarod performance (motor coordination; morphine 15 mg kg^−1 SC): caused sedation and motor impairment
